Experimental data published in patent publication US6462032B1, “Cyclic regimens utilizing indoline derivatives” (Wyeth, priority 1999, dated 2002).
Where “and” joins values, the source holds several entries; their conditions need not be identical. Equal values may be shown once.

What was measured:
T47D cells = experiment: T47D cell proliferation assay (BrdU incorporation); format: cell-based; conditions: decrease in trimegestone induced BrdU incorporation, individual experiments
Description: 3. T47D Cell Proliferation Assay
The objective of this assay is the determination of progestational and antiprogestational potency by using a cell proliferation assay in T47D cells. A compound's effect on DNA synthesis in T47D cells is measured.
DMEM:F12(1:1) (GIBCO, BRL) supplemented with 10% (v/v) fetal bovine serum (not heat-inactivated), 100 U/ml penicillin, […], and 2 mM GlutaMax (GIBCO, BRL).
Minimum Essential Medium (MEM) (#51200-038GIBCO, BRL) phenol red-free supplemented with 0.5% charcoal stripped fetal bovine serum, 100 U/ml penicillin, […] streptomycin, and 2 mM GlutaMax (GIBCO, BRL). […]
At the end of BrdU labeling, the medium is removed and BrdU incorporation is measured using a cell proliferation ELISA kit (#RPN 250, Amersham Life Science) according to manufacturer's instructions. […] Then 25 μl of 1 M sulfuric acid is added to each well to stop color reaction and optical density is read in a plate reader at 450 nm within 5 min.
Square root-transformed data are used for analysis of variance and nonlinear dose response curve fitting for both agonist and antagonist modes. […] EC50 or IC50 values are calculated from the retransformed values.
Trimegestone and medroxyprogesterone acetate (MPA) are reference progestins and RU486 is the reference antiprogestin. All reference compounds are run in fill dose-response curves and the EC50 or IC50 values are calculated.

[1] = test system: rat uterine decidualization; experiment: Rat decidualization assay; conditions: ovariectomized rats, s.c.; for Estimated average EC50: average of dose-response curves; for EC50: uterine wet weight (decidual response), individual studies

Structure (SMILES) | IC50 (T47D cells) | Estimated average EC50 [1] [mg/kg. s.c.] | EC50 [1] | melting point [°C]
CC#C[C@]1(O)CC[C@H]2[C@@H]3CCC4=CC(=O)CCC4=C3[C@@H](c3ccc(N(C)C)cc3)C[C@@]21C [RU486] | 0.016 nM and 0.018 nM | – | – | –
C#C[C@]1(O)CC[C@H]2[C@@H]3CCC4=CC(=O)CC[C@@H]4[C@H]3CC[C@@]21CC [Levonorgestrel, levonorgestrel] | – | 0.10 | 0.08 mg/kg, s.c. and 0.12 mg/kg, s.c. and 0.09 mg/kg, s.c. (2×) | –
CCC1C(=O)Nc2ccc(-c3cccc(Cl)c3)cc21 (stereo not shown) [Example 6, 5-(3Chloro-phenyl)-3-ethyl-1,3-dihydro-indol-2-one] | – | – | – | 100 to 101
O=C1CCC(c2cc(F)cc(Br)c2)CC12CNc1ccccc12 (stereo not shown) [Example 28, 5-(3-Bromo-5-fluorophenyl)spiro[cyclohexane-1,3-[3H]indol]-2(1′H)-one] | – | – | – | 194 to 196
C#C[C@]1(O)CC[C@H]2[C@@H]3CCC4=CC(=O)CC[C@@H]4[C@H]3C(=C)C[C@@]21CC [3-Ketodesogestrel, 3-ketodesogestrel] | – | 0.10 | 0.10 mg/kg, s.c. and 0.06 mg/kg, s.c. and 0.11 mg/kg, s.c. | –
